This note sets out measurements from US10913733B2, “Substituted piperidines thiazolyl acetamides as glycosidase inhibitors and uses thereof” (priority 2015, dated 2021).

For this experiment, the target named is human O-GlcNAcase (Homo sapiens (Human), UniProt O60502). Briefly: Assay for determination of KI values for inhibition of O-GlcNAcase activity. The experiment is classed as biochemical. To be noted: purified human O-GlcNAcase 0.7 nM; substrate 2 mM 4-Methylumbelliferyl N-acetyl-β-D-glucosaminide; pH 7.0; room temperature; Cheng-Prusoff; read-out: hOGA Ki. As to the method:
Assay for Determination of KI Values for Inhibition of O-GlcNAcase Activity
Experimental procedure for kinetic analyses: Enzymatic reactions were carried out in a reaction containing 50 mM NaH2PO4, 100 mM NaCl and 0.1% BSA (pH 7.0) using 2 mM 4-Methylumbelliferyl N-acetyl-β-D-glucosaminide dihydrate (Sigma M2133) dissolved in ddH2O, as a substrate. The amount of purified human O-GlcNAcase enzyme used in the reaction was 0.7 nM. Test compound of varying concentrations was added to the enzyme prior to initiation of the reaction. The reaction was performed at room temperature in a 96-well plate and was initiated with the addition of substrate. The production of fluorescent product was measured every 60 sec for 45 min with a Tecan Infinite M200 plate-reader with excitation at 355 nm and emission detected at […], with 4-Methylumbelliferone (Sigma M1381) used to produce a standard curve. The slope of product production was determined for each concentration of compound tested and plotted, using standard curve fitting algorithms for sigmoidal dose response curves. The values for a four parameter logistic curve fit of the data were determined. KI values were determined using the Cheng-Prusoff equation; the Km of O-GlcNAcase for substrate was 0.2 mM.

The structures appear in SMILES notation. pKi: −log10 of the molar value. Where “and” joins values, the source holds several entries; their conditions need not be identical. Equal entries are not always repeated.

Sequence of human O-GlcNAcase (O60502 whole entry): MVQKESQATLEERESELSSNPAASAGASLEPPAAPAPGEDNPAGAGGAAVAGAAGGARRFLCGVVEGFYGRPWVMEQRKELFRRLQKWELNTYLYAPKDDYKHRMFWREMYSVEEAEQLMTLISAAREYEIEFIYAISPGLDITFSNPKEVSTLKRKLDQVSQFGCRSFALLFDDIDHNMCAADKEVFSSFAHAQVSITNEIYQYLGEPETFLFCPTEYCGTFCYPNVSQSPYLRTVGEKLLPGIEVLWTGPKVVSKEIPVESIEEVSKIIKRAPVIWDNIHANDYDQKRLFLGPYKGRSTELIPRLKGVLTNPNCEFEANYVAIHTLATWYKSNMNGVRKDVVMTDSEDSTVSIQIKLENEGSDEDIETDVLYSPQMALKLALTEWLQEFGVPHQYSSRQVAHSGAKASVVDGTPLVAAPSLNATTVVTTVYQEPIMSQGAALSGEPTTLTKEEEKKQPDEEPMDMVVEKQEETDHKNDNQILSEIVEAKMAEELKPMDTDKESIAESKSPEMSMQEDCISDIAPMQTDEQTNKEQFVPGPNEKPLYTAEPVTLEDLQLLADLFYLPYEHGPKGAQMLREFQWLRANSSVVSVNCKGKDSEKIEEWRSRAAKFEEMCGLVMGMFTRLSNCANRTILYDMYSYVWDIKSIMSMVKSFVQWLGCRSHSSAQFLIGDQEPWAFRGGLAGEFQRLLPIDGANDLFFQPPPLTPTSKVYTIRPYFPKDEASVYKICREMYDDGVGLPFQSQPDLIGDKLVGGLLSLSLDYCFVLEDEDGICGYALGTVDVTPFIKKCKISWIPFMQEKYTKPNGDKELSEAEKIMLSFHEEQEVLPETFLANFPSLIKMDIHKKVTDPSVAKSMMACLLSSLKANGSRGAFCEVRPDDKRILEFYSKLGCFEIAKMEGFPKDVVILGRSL

Turning to `COc1ccc(C=C2CCN(Cc3cnc(NC(C)=O)s3)CC2)cc1OC` [Example 1, N-(5-((4-(3,4-dimethoxybenzylidene)piperidin-1-yl)methyl)thiazol-2-yl)acetamide], the pKi is 9.41.

With `CC(=O)Nc1ncc(CN2CCC(=Cc3ccc(F)nc3)CC2)s1` [Example 2, N-(5-((4-((6-fluoropyridin-3-yl)methylene)piperidin-1-yl)methyl)thiazol-2-yl)acetamide], the pKi was 8.68.

`CC(=O)Nc1ncc(CN2CCC(=Cc3ccc(O)nc3)CC2)s1` [Example 3, N-(5-((4-((6-hydroxypyridin-3-yl)methylene)piperidin-1-yl)methyl)thiazol-2-yl)acetamide]: the pKi is 8.96.

As for `CC(=O)Nc1ncc(CN2CCC(=Cc3ccc(OC(=O)OC(C)(C)C)cc3)CC2)s1` [Example 5, 4-((1-((2-acetamidothiazol-5-yl)methyl)piperidin-4-ylidene)methyl)phenyl tert-butyl carbonate], the pKi is 8.45.

In the case of `CC(=O)Nc1ncc(CN2CCC(=Cc3ccc(N)nc3)CC2)s1` [Example 6, N-[5-({4-[(6-aminopyridin-3-yl)methylidene]piperidin-1-yl}methyl)-1,3-thiazol-2-yl]acetamide], the pKi was 9.20.

Consider `CC(=O)Nc1ncc(CN2CCC(=Cc3cccc(CO)c3)CC2)s1` [Example 7, N-(5-((4-(3-(hydroxymethyl)benzylidene)piperidin-1-yl)methyl)thiazol-2-yl)acetamide], for which the pKi was 9.16.

Consider `CC(=O)Nc1ncc(CN2CCC(=Cc3cn[nH]c3)CC2)s1` [Example 8, N-(5-((4-((1H-pyrazol-4-yl)methylene)piperidin-1-yl)methyl)thiazol-2-yl)acetamide], for which the pKi was 9.41.

For `CC(=O)Nc1ncc(CN2CCC(=Cc3ccc(C(N)=O)cc3)CC2)s1` [Example 9, 4-((1-((2-acetamidothiazol-5-yl)methyl)-piperidin-4-ylidene)methyl)benzamide], the pKi is 9.53.

`CC(=O)Nc1ncc(CN2CCC(=Cc3cccc(CC(N)=O)c3)CC2)s1` [Example 10, 2-(3-((1-((2-acetamidothiazol-5-yl)methyl)-piperidin-4-ylidene)methyl)phenyl) acetamide]: the pKi is 9.21.

For the molecule `CC(=O)Nc1ncc(CN2CCC(=Cc3ccc(OC(F)(F)F)cc3)CC2)s1` [Example 11, N-(5-((4-(4-(trifluoromethoxy)benzylidene)-piperidin-1-yl)methyl)thiazol-2-yl)acetamide], the pKi is 8.50.

In the case of `CCc1ccc(C=C2CCN(Cc3cnc(NC(C)=O)s3)CC2)cc1` [Example 12, N-(5-((4-(4-ethylbenzylidene)piperidin-1-yl)methyl)thiazol-2-yl)acetamide], the pKi is 9.15.

On to `CC(=O)Nc1ncc(CN2CCC(=Cc3ccc(C)cc3)CC2)s1` [Example 13, N-(5-((4-(4-methylbenzylidene)piperidin-1-yl)methyl)thiazol-2-yl)acetamide], for which the negative-log Ki (pKi) is 9.13.

Turning to `CCOc1ccc(C=C2CCN(Cc3cnc(NC(C)=O)s3)CC2)cc1` [Example 14, N-(5-((4-(4-ethoxybenzylidene)piperidin-1-yl)methyl)thiazol-2-yl)acetamide], the negative logarithm of the Ki (pKi) is 8.84.

With `CC(=O)Nc1ncc(CN2CCC(=Cc3cncnc3)CC2)s1` [Example 15, N-(5-((4-(pyrimidin-5-ylmethylene)piperidin-1-yl)methyl)thiazol-2-yl)acetamide], the pKi was 8.47.

With `COc1cccc(C=C2CCN(Cc3cnc(NC(C)=O)s3)CC2)c1OC` [Example 16, N-[5-({4-[(2,3-dimethoxyphenyl)methylidene]piperidin-1-yl}methyl)-1,3-thiazol-2-yl]acetamide], the pKi was 8.47.

`CC(=O)Nc1ncc(CN2CCC(=Cc3ccc(S(=O)(=O)N(C)C)cc3)CC2)s1` [Example 17, N-(5-((4-(4-(N,N-dimethylsulfamoyl)benzylidene)piperidin-1-yl)methyl)thiazol-2-yl)acetamide]: the pKi is 10.02.

For the molecule `CC(=O)Nc1ncc(CN2CCC(=Cc3ccc4[nH]ccc4c3)CC2)s1` [Example 18, N-(5-{[4-(1H-indol-5-ylmethylidene)piperidin-1-yl]methyl}-1,3-thiazol-2-yl)acetamide], the negative-log Ki (pKi) is 9.37.

Regarding `CC(=O)Nc1ncc(CN2CCC(=Cc3ccc4c(c3)OCO4)CC2)s1` [Example 19, N-(5-{[4-(1,3-benzodioxol-5-ylmethylidene)piperidin-1-yl]methyl}-1,3-thiazol-2-yl)acetamide], the pKi is 8.99.

For the molecule `CC(=O)Nc1ncc(CN2CCC(=Cc3ccc4c(c3)OCCO4)CC2)s1` [Example 20, N-(5-{[4-(2,3-dihydro-1,4-benzodioxin-6-ylmethylidene)piperidin-1-yl]methyl}-1,3-thiazol-2-yl)acetamide], the pKi is 8.75.

For the molecule `CC(=O)Nc1ncc(CN2CCC(=Cc3ccc4c(c3)CNC4=O)CC2)s1` [Example 21, N-(5-((4-((1-oxoisoindolin-5-yl)methylene)piperidin-1-yl)methyl)thiazol-2-yl)acetamide], the pKi was 9.57.

`COc1cc(C=C2CCN(Cc3cnc(NC(C)=O)s3)CC2)ccc1O` [Example 22, N-[5-({4-[(4-hydroxy-3-methoxyphenyl)methylidene]piperidin-1-yl}methyl)-1,3-thiazol-2-yl]acetamide]: the negative-log Ki (pKi) was 9.20.

On to `COc1ccc(C=C2CCN(Cc3cnc(NC(C)=O)s3)CC2)cc1O` [Example 23, N-[5-({4-[(3-hydroxy-4-methoxyphenyl)methylidene]piperidin-1-yl}methyl)-1,3-thiazol-2-yl]acetamide], for which the pKi was 8.82.

As to `COC(=O)c1ccc(C=C2CCN(Cc3cnc(NC(C)=O)s3)CC2)cc1` [Example 24, methyl 4-((1-((2-acetamidothiazol-5-yl)methyl)piperidin-4-ylidene)methyl)benzoate], the pKi is 8.86.

As for `CC(=O)Nc1ncc(CN2CCC(=Cc3ccc(CF)cc3)CC2)s1` [Example 26, N-(5-((4-(4-(fluoromethyl)benzylidene)piperidin-1-yl)methyl)thiazol-2-yl)acetamide], the pKi was 9.78 and 10.12.

Regarding `CC(=O)Nc1ncc(CN2CCC(=Cc3ccc(CCF)cc3)CC2)s1` [Example 27, N-(5-((4-(4-(2-fluoroethyl)-benzylidene)piperidin-1-yl)methyl)thiazol-2-yl)acetamide], the negative-log Ki (pKi) was 9.39.

In the case of `CC(=O)N(C)c1ncc(CN2CCC(=Cc3ccc(CCF)cc3)CC2)s1` [Example 28, N-(5-((4-(4-(2-fluoroethyl)benzylidene)-piperidin-1-yl)methyl)thiazol-2-yl)-N-methylacetamide], the pKi is 8.24.

For `CC(=O)Nc1ncc(CN2CCC(=Cc3ccc(C(=O)O)cc3)CC2)s1` [Example 29, 4-[(1-{[2-(acetylamino)-1,3-thiazol-5-yl]methyl}piperidin-4-ylidene)methyl]benzoic acid], the pKi was 9.49.

For `CNC(=O)c1ccc(C=C2CCN(Cc3cnc(NC(C)=O)s3)CC2)cc1` [Example 30, 4-[(1-{[2-(acetylamino)-1,3-thiazol-5-yl]methyl}piperidin-4-ylidene)methyl]-N-methylbenzamide], the pKi is 9.37.

Consider `CC(=O)Nc1ncc(CN2CCC(=Cc3ccc(C(=O)N(C)C)cc3)CC2)s1` [Example 31, 4-((1-((2-acetamidothiazol-5-yl)methyl)piperidin-4-ylidene)methyl)-N,N-dimethylbenzamide], for which the pKi was 9.93.

Turning to `CC(=O)Nc1ncc(CN2CCC(=Cc3ccc(F)cc3)CC2)s1` [Example 32, N-[5-({4-[(4-fluorophenyl)methylidene]piperidin-1-yl}methyl)-1,3-thiazol-2-yl]acetamide], the pKi is 8.57.

`CC(=O)Nc1ncc(CN2CCC(=Cc3ccccc3)CC2)s1` [Example 33, N-(5-{[4-(phenyl-methylidene)piperidin-1-yl]methyl}-1,3-thiazol-2-yl)acetamide]: the pKi is 8.76.

Consider `CC(=O)Nc1ncc(CN2CC/C(=C/c3ccccc3)C[C@@H]2C)s1` [Example 34, (S,Z)-N-(5-{(4-benzylidene-2-methylpiperidin-1-yl)methyl)thiazol-2-yl)acetamide], for which the pKi was 8.98.

For `CC(=O)Nc1ncc(CN2CC/C(=C/c3ccccc3)C[C@H]2C)s1` [Example 35, (R,Z)-N-(5-((4-benzylidene-2-methylpiperidin-1-yl)methyl)thiazol-2-yl)acetamide], the pKi was 7.25.

Take `CC(=O)Nc1ncc(CN2CC/C(=C\c3ccccc3)C[C@H]2C)s1` [Example 36, (R,E)-N-(5-((4-benzylidene-2-methylpiperidin-1-yl)methyl)thiazol-2-yl)acetamide]: the pKi was 6.39.

For the molecule `CC(=O)Nc1ncc(CN2CC/C(=C\c3ccccc3)C[C@@H]2C)s1` [Example 37, (S,E)-N-(5-((4-benzylidene-2-methylpiperidin-1-yl)methyl)thiazol-2-yl)acetamide], the pKi was 7.53.

For `COc1ccc(/C=C2/CCN(Cc3cnc(NC(C)=O)s3)[C@@H](C)C2)cc1` [Example 38, (S,Z)-N-(5-((4-(4-methoxybenzylidene)-2-methylpiperidin-1-yl)methyl)thiazol-2-yl)acetamide], the pKi was 9.54.

As to `COc1ccc(/C=C2\CCN(Cc3cnc(NC(C)=O)s3)[C@H](C)C2)cc1` [Example 39, (R,E)-N-(5-((4-(4-methoxybenzylidene)-2-methylpiperidin-1-yl)methyl)thiazol-2-yl)acetamide], the pKi is 6.90.

For orientation: pKi means the Ki on a negative log10 scale, so that one unit is a factor of ten.
